According to patent US20230303494A1, “BENZYLAMINE DERIVATIVE, PREPARATION METHOD THEREFOR AND USE THEREOF” (ACADEMY OF MILITARY MEDICAL SCIENCES, priority 2020, published 2023):

Key:
[1] = tested on: Raji cells; assay: Cytotoxicity, Cell Titer-Glo, Raji cells; format: cell-based; settings: Homo sapiens, 24 hours incubation, read-out: Raji cells IC50 (cell death)
Procedure: (§1) The raji (ATCC), raw (ATCC) and PBMCs cells were suspended in buffer (RPMI 1640 complete medium containing 10% FBS, SIGMA), respectively, and the cell density was counted. The cells were transferred to wells of a 96-well plate, ensuring that the cell density of each well was 1×10^4 cells/well, and incubated for 24 hours at 37° C., 5% CO2 with compounds at different concentrations (100 μM, 50 μM, 25 μM, 12.5 μM, 6.25 μM and 3.125 μM) and buffer control solution (0.2% DMSO). To each well, 100 μL of Cell Titer-Glo Luminescent Solution (Promega) was added and shaken for 10 minutes at room temperature, and then GloMax® Navigator System was used to measure the system […], and the cell death rate was calculated. Cell death rate (%)=(1−RLUcompound/RLUcontrol)×100%, and IC50 was determined from the inhibition curve.

[2] = biological target: PD-1/PD-L1 interaction (Homo sapiens (Human), UniProt Q9NZQ7); assay: PD-1/PD-L1 Binding Assay kit (Cisbio), HTRF; settings: 8-10 concentrations, read-out: IC50 of inhibition of PD-1/PD-L1 interaction
PD-1/PD-L1 interaction, sequence (Q9NZQ7 19-238): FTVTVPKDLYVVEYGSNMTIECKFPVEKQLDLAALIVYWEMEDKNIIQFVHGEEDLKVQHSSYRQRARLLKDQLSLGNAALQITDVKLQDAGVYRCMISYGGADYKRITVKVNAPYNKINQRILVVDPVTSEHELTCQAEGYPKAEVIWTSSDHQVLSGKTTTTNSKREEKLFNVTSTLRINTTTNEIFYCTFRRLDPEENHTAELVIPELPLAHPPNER

[3] = tested on: colon cancer cell line MC38 (mouse PD-L1 knockout, human PD-L1 knockin); assay: Antitumor efficacy in vivo in PD-1 humanized mice inoculated with PD-L1 humanized MC38 cells; settings: 15 mg/kg intraperitoneal injection once per day for three weeks, compared with the control group
Excerpt: Based on the mechanism that PD-1/PD-L1 inhibitors activated the immune system to achieve anti-tumor effects by interfering with the interaction of PD-1/PD-L1, the animal models used in vivo efficacy experiments must be animals with healthy immune systems; in addition, the species differences of PD-1/PD-L1 between animals and humans are considered. Therefore, the in vivo antitumor pharmacodynamics evaluation model of the present invention adopted PD-1 humanized mice, and the inoculated tumors were PD-L1 humanized tumor cells. This evaluation model could more accurately reflect the in vivo efficacy of the compound.
24 PD-1 humanized mice (full name of strain: C57BL/6J-Pdcd1^em1(hPDCD1)/Smoc) about 6 weeks old were purchased from Shanghai Southern Model Animal Center, and placed in SPF grade animal breeding room for observation for 1 to 2 weeks. After the animals were adapted to the raising environment, the genetically engineered colon cancer cell line MC38 (mouse PD-L1 knockout, human PD-L1 knockin) was subcutaneously inoculated to the mice near the hind leg groin, and the inoculated cell volume was 1×10^6 cells per mouse. […] During the experiment, the tumor size and mouse body weight were measured and recorded, and the mice were sacrificed at the end of the experiment. […]

[4] = tested on: Raw cells; assay: Cytotoxicity, Cell Titer-Glo, Raw cells; format: cell-based; settings: 24 hours incubation; read-out: Raw cells IC50 (cell death)
Procedure: as §1

[5] = biological target: human PD-L1 (Homo sapiens (Human), UniProt Q9NZQ7); assay: Biofilm interferometry (BLI, OctetRED) binding to human PD-L1/AVI; settings: 1:1 binding model
human PD-L1, sequence (Q9NZQ7 19-290): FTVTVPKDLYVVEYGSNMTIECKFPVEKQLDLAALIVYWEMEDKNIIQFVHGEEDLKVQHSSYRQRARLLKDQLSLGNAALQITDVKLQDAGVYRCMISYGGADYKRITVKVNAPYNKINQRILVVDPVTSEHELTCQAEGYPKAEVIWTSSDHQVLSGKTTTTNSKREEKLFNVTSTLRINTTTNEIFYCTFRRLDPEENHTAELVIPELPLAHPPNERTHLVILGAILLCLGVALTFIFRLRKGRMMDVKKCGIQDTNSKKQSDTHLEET
Procedure: In the experiment, the instrument OctectRED of Fortebio Company based on biofilm interferometry (BLI) technology was used to capture human PD-L1/AVI with SA chips. The concentration of antigen PD-L1/AVI was diluted to 10 μg/mL with running buffer (PBS+0.02% Tween-20+2% DMSO), and the loading time was 300 s; similarly, the analyte was also diluted to the corresponding concentrations (20 nM, 10 nM, 5 nM, 2.5 nM, 1.25 nM, 0.625 nM, 0.3125 nM) with running buffer in gradient manner, and a buffer blank control group was set at the same time. The binding time of human PD-L1/AVI to the analyte was 180 s, and the dissociation time was 300 s; the chip was regenerated with 10 mM glycine HCl, pH 1.7 solution and repeated 5-second pulse for 3 times. The data were fitted to a 1:1 binding model to determine the equilibrium dissociation constant KD.

[6] = tested on: PBMCs cells; assay: Cytotoxicity, Cell Titer-Glo, PBMCs cells; format: cell-based; settings: Homo sapiens, PBMC; 24 hours incubation; read-out: PBMCs cells IC50 (cell death)
Procedure: as §1

[7] = tested on: Human peripheral blood mononuclear cells (PBMCs); assay: Promotion of IFN-γ secretion in PBMCs treated with anti-CD3/anti-CD28 and PDL1/FC fusion protein (ELISA); format: cell-based; settings: for IFN-γ / Increase rate of IFN-γ expression vs PDL1 treatment: hPD-L1 10.0 μg/mL, 72 h
Procedure: Human peripheral blood mononuclear cells (PBMCs) were isolated from 10-15 ml of whole blood of healthy volunteers using experimental human lymphocyte separation medium (TBD sciences). The cells were washed twice with normal saline and resuspended in buffer (RPMI 1640 complete medium containing 10% FBS, SIGMA) to count the cell density. The PBMCs were dispersed and placed in a 96-well plate, 1×10^5 cells and 50 μL of buffer per well. Anti-CD3 antibody (SIGMA) and anti-CD28 antibody (SIGMA) were mixed at a ratio of 1:1 to obtain an antibody mixture. The antibody mixture was added to the wells to ensure that the final concentration of antibody was 0.8 μg/mL. At the same time, PDL1/FC fusion protein (SINO BIOLOGICAL) was added to reach a final concentration of 10.0 μg/mL, and the compound to be tested was diluted with buffer and added to the wells to reach a final concentration of 0.1 μM or 1 μM. The mixed system was incubated at 37° C. and 5% CO2 for 72 h. The supernatant was collected, and the expression level of IFN-γ was measured by ELISA MAXTM Human IFN-γ Standard Kit (BioLegend), and the increase rate was calculated. Increase rate (%)=(expression amount of compound treatment−expression amount of PDL1 treatment)/expression amount of PDL1 treatment×100%

IC50 [2]: 12 nM
Kd [5]: 0.0162 nM
kon [5]: 2.17e+06 M⁻¹ s⁻¹
koff ([5]; read-out: Kdis): 3.53e-05 s⁻¹
Compound: Cc1cc(CN[C@H](CO)C(=O)O)c(OCc2cncc(C#N)c2)cc1NCc1cccc(-c2ccccc2)c1C [Compound 5]
IC50 [1]: > 100000 nM
growth of tumors [3]: significantly inhibit the growth of tumors
IC50 [4]: > 100000 nM
IC50 [6]: > 100000 nM
IFN-γ ([7]; compound 0.1 μM): 38300 pg/mL
Increase rate of IFN-γ expression vs PDL1 treatment ([7]; compound 0.1 μM): 79.8%
IFN-γ ([7]; compound 1.0 μM): 42400 pg/mL
Increase rate of IFN-γ expression vs PDL1 treatment ([7]; compound 1.0 μM): 99.1%
effect on promoting IFN-γ secretion at the cellular level ([7]; in words, better than that of BMS202): significant effect on promoting IFN-γ secretion
